In US9896418B2, “Aryl ethers and uses thereof” (Peloton Therapeutics, Inc., priority 2013, dated 2018):

Tested on: HIF-2α HIS TAG-PASB Domain
Assay: HIF-2α Scintillation Proximity Assay (SPA)
Type: binding
Method: The percent inhibition was determined and IC50 values were calculated using the Dotmatics system based on the following equation: % inhibition=[(high control−sample)/(high control−low control)]×100.

SMILES	IC50 [nM]
C=CS(=O)(=O)c1ccc(Oc2cc(F)cc(Cl)c2)c(Br)c1 [Compound 130, 2-Bromo-1-(3-chloro-5-fluorophenoxy)-4-(vinylsulfonyl)benzene]	5500
N#Cc1cc(S(=O)(=O)C(F)F)ccc1Oc1cc(F)cc(Cl)c1 [Compound 133, 2-(3-Chloro-5-fluorophenoxy)-5-((difluoromethyl)sulfonyl)benzonitrile]	500
O=S(=O)(CF)c1ccc(Oc2cc(F)cc(Cl)c2)c(Br)c1 [Compound 137, 2-Bromo-1-(3-chloro-5-fluorophenoxy)-4-((fluoromethyl)sulfonyl)benzene]	560
CS(=O)(=O)c1ccc(Oc2cc(F)cc(Cl)c2)c(Br)c1 [Compound 138, 2-Bromo-1-(3-chloro-5-fluorophenoxy)-4-(methylsulfonyl)benzene]	4000
Cc1c(Oc2cc(F)cc(C#N)c2)ccc(S(=O)(=O)C(F)(F)F)c1C#CCO [Compound 142, 3-Fluoro-5-[3-(3-hydroxyprop-1-ynyl)-2-methyl-4-(trifluoromethylsulfonyl)phenoxy]benzonitrile]	13000
Cc1c(Oc2cc(F)cc(C#N)c2)ccc(S(=O)(=O)C(F)(F)F)c1/C=C/C(=O)NCc1ccccc1 [Compound 149, (E)-N-Benzyl-3-(3-(3-cyano-5-fluorophenoxy)-2-methyl-6-((trifluoromethyl)sulfonyl)phenyl)acrylamide]	5700
Cc1c(Oc2cc(F)cc(C#N)c2)ccc(S(=O)(=O)C(F)(F)F)c1/C=C/c1nnco1 [Compound 150, 3-Fluoro-5-[2-methyl-3-[(E)-2-(1,3,4-oxadiazol-2-yl)vinyl]-4-(trifluoromethylsulfonyl)phenoxy]benzonitrile]	1300
Cc1nnc(/C=C/c2c(S(=O)(=O)C(F)(F)F)ccc(Oc3cc(F)cc(C#N)c3)c2C)o1 [Compound 151, 3-Fluoro-5-[2-methyl-3-[(E)-2-(5-methyl-1,3,4-oxadiazol-2-yl)vinyl]-4-(trifluoromethylsulfonyl)phenoxy]benzonitrile]	1100
N#Cc1c(Oc2cc(F)cc(Cl)c2)ccc(S(=O)(=O)C(F)(F)F)c1NCCO [Compound 154, 6-(3-Chloro-5-fluoro-phenoxy)-2-(2-hydroxyethylamino)-3-(trifluoromethylsulfonyl)benzonitrile]	11700
O=S(=O)(c1ccc(Oc2ccc(Cl)c(Cl)c2)c(Br)c1)C(F)(F)F [Compound 169, 2-Bromo-1-(3,4-dichlorophenoxy)-4-((trifluoromethyl)sulfonyl)benzene]	1900
O=S(=O)(c1ccc(Oc2cc(Cl)ccc2F)c(Br)c1)C(F)(F)F [Compound 170, 2-Bromo-1-(5-chloro-2-fluorophenoxy)-4-((trifluoromethyl)sulfonyl)benzene]	1800
Cc1c(Cl)cccc1Oc1ccc(S(=O)(=O)C(F)(F)F)cc1Br [Compound 171, 1-(2-Bromo-4-((trifluoromethyl)sulfonyl)phenoxy)-3-chloro-2-methylbenzene]	1200
Cc1cc(C)cc(Oc2ccc(S(=O)(=O)C(F)(F)F)cc2Br)c1 [Compound 173, 2-Bromo-1-(3,5-dimethylphenoxy)-4-((trifluoromethyl)sulfonyl)benzene]	2000
Cc1ccc(Cl)cc1Oc1ccc(S(=O)(=O)C(F)(F)F)cc1Br [Compound 174, 2-Bromo-1-(5-chloro-2-methylphenoxy)-4-((trifluoromethyl)sulfonyl)benzene]	1200
O=S(=O)(c1ccc(Oc2cc(F)cc(CO)c2)c(Br)c1)C(F)(F)F [Compound 177, (3-(2-Bromo-4-((trifluoromethyl)sulfonyl)phenoxy)-5-fluorophenyl)methanol]	18000

These reach a lower IC50. Values come first.

IC50 [nM]	SMILES
450	N#Cc1cc(F)cc(Oc2ccc(S(=O)(=O)C(F)F)cc2C#N)c1 [Compound 134, 2-(3-Cyano-5-fluorophenoxy)-5-((difluoromethyl)sulfonyl)benzonitrile]
370	Cc1cc(S(=O)(=O)C(F)F)ccc1Oc1cc(F)cc(Cl)c1 [Compound 135, 1-(3-Chloro-5-fluoro-phenoxy)-4-(difluoromethylsulfonyl)-2-methyl-benzene]
320	CS(=O)(=O)c1ccc(Oc2cc(F)cc(C#N)c2)c(C#N)c1Cl [Compound 152, 2-chloro-6-(3-cyano-5-fluorophenoxy)-3-(methylsulfonyl)benzonitrile]
310	O=S(=O)(c1ccc(Oc2cc(F)cc(Cl)c2)c(Br)c1)C(F)F [Compound 131, 2-Bromo-1-(3-chloro-5-fluorophenoxy)-4-((difluoromethyl)sulfonyl)benzene]
310	N#Cc1cc(F)cc(Oc2ccc(S(=O)(=O)C(F)F)cc2Br)c1 [Compound 132, 3-(2-Bromo-4-((difluoromethyl)sulfonyl)phenoxy)-5-fluorobenzonitrile]
310	O=S(=O)(c1ccc(Oc2cc(Cl)cc(Cl)c2)c(Br)c1)C(F)(F)F [Compound 172, 2-Bromo-1-(3,5-dichlorophenoxy)-4-((trifluoromethyl)sulfonyl)benzene]
230	Cc1cc(S(=O)(=O)C(F)F)ccc1Oc1cc(F)cc(C#N)c1 [Compound 136, 3-[4-(Difluoromethylsulfonyl)-2-methyl-phenoxy]-5-fluoro-benzonitrile]
230	N#Cc1c(Oc2cc(F)cc(Cl)c2)ccc(S(=O)(=O)C(F)(F)F)c1F [Compound 153, 6-(3-chloro-5-fluorophenoxy)-2-fluoro-3-((trifluoromethyl)sulfonyl)benzonitrile]
220	CCOC(=O)/C=C/c1c(S(=O)(=O)C(F)(F)F)ccc(Oc2cc(F)cc(C#N)c2)c1C [Compound 148, Ethyl (E)-3-(3-(3-cyano-5-fluorophenoxy)-2-methyl-6-((trifluoromethyl)sulfonyl)phenyl)acrylate]
110	COC(=O)/C=C/c1c(S(=O)(=O)C(F)(F)F)ccc(Oc2cc(F)cc(C#N)c2)c1C [Compound 147, Methyl (E)-3-[3-(3-cyano-5-fluoro-phenoxy)-2-methyl-6-(trifluoromethylsulfonyl)phenyl]prop-2-enoate]
74	Cc1c(Oc2cc(F)cc(C#N)c2)ccc(S(=O)(=O)C(F)(F)F)c1C=O [Compound 145, 3-Fluoro-5-[3-formyl-2-methyl-4-(trifluoromethylsulfonyl)phenoxy]benzonitrile]
65	Cc1c(Oc2cc(F)cc(C#N)c2)ccc(S(=O)(=O)C(F)(F)F)c1Br [Compound 141, 3-[3-Bromo-2-methyl-4-(trifluoromethylsulfonyl)phenoxy]-5-fluoro-benzonitrile]
44	Cc1c(Oc2cc(F)cc(C#N)c2)ccc(S(=O)(=O)C(F)(F)F)c1Cl [Compound 144, 3-Fluoro-5-[3-chloro-2-methyl-4-(trifluoromethylsulfonyl)phenoxy]benzonitrile]
29	Cc1c(Oc2cc(F)cc(Cl)c2)ccc(S(=O)(=O)C(F)(F)F)c1Br [Compound 140, 3-Bromo-1-(3-chloro-5-fluoro-phenoxy)-2-methyl-4-(trifluoromethylsulfonyl)benzene]
20	Cc1c(Oc2cc(F)cc(Cl)c2)ccc(S(=O)(=O)C(F)(F)F)c1Cl [Compound 143, 3-Chloro-1-(3-chloro-5-fluoro-phenoxy)-2-methyl-4-(trifluoromethylsulfonyl)benzene]
